Ends that are not written are not given here.
These substances were tested on mouse vas deferens (assay: Inhibition of the twitch induced by electrical stimulation of mouse vas deferens). Conditions: not given.
Format: cell-based

Substance | Emax
N/OFQ-NH2 (FGGFTGARKSARKLANQ-NH2; UniProt Q13519 130-146, looked up) [reference compound] | 93 ± 2%

Same assay, conditions: Table 2; wild type (NOP+/+) mice

Substance | Emax NOP+/+ | pEC50 NOP+/+
DPDPE [[D-Pen^2,D-Pen^5]-Enkephalin, reference compound] | 93 ± 3% | 8.40

Same assay, conditions: Table 4

Substance | Emax | pEC50 (CL 95%)
[(aMe)D/L-Leu^7]N/OFQ-NH2 [[(aMe)D/L-Leu^7]N/OFQ-NH2 (diastereomer 1)] | 84 ± 1% | 7.33 (7.04-7.62)
[(aMe)D/L-Leu^7]N/OFQ-NH2 [[(aMe)D/L-Leu^7]N/OFQ-NH2 (diastereomer 2)] | 95 ± 2% | 7.12 (7.02-7.22)
[(aMe)D/L-Leu^11]N/OFQ-NH2 | 91 ± 4% | 7.87 (7.67-8.07)
[(aMe)D/L-Val^7]N/OFQ-NH2 [[(aMe)D/L-Val^7]N/OFQ-NH2 (diastereomer 1)] | 88 ± 1% | 7.26 (7.00-7.52)
[(aMe)D/L-Val^7]N/OFQ-NH2 [[(aMe)D/L-Val^7]N/OFQ-NH2 (diastereomer 2)] | 95 ± 1% | 7.56 (7.34-7.78)
[(aMe)D/L-Val^11]N/OFQ-NH2 [[(aMe)D/L-Val^11]N/OFQ-NH2 (diastereomer 1)] | 93 ± 2% | 7.71 (7.37-8.05)
[(aMe)D/L-Val^11]N/OFQ-NH2 [[(aMe)D/L-Val^11]N/OFQ-NH2 (diastereomer 2)] | 86 ± 4% | 7.83 (7.67-7.99)
[Ac3c^7]N/OFQ-NH2 | 98 ± 1% | 7.08 (6.82-7.34)
[Ac3c^11]N/OFQ-NH2 | 91 ± 4% | 7.78 (7.62-7.94)
[Ac5c^7]N/OFQ-NH2 | 98 ± 1% | 7.60 (7.40-7.80)
[Ac5c^11]N/OFQ-NH2 | 89 ± 4% | 8.08 (7.93-8.23)
[Ac6c^7]N/OFQ-NH2 | 87 ± 1% | 7.20 (6.86-7.54)
[Ac6c^11]N/OFQ-NH2 | 89 ± 4% | 7.79 (7.53-8.05)
[Deg^7]N/OFQ-NH2 | 89 ± 2% | 7.91 (7.53-8.27)
[Deg^11]N/OFQ-NH2 | 87 ± 4% | 7.75 (7.43-7.89)
[Dpg^7]N/OFQ-NH2 | 91 ± 4% | 7.90 (7.71-8.11)
[Dpg^11]N/OFQ-NH2 | 86 ± 3% | 7.53 (7.17-8.04)
[Iva^7]N/OFQ-NH2 [[Iva^7]N/OFQ-NH2 (diastereomer 1)] | 91 ± 4% | 7.83 (7.74-7.92)
[Iva^7]N/OFQ-NH2 [[Iva^7]N/OFQ-NH2 (diastereomer 2)] | 88 ± 3% | 7.62 (7.32-7.92)

Same assay, conditions: agonist N/OFQ

Substance | pA2 in competition with the endogenous agonist N/OFQ
[Nphe1,Arg14,Lys15]N/OFQ-NH2 (XGGFTGARKSARKRKNQ; Nphe1, C-terminal amide; Synthetized. Featured in patent as UFP-101, ref. Calòet al. Br J Pharmacol 136, 303-311, 2002) [reference compound] | 6.91

Same assay, conditions: agonist UFP-112

Substance | pA2 in competition with UFP-112
[Nphe1,Arg14,Lys15]N/OFQ-NH2 (XGGFTGARKSARKRKNQ; Nphe1, C-terminal amide; Synthetized. Featured in patent as UFP-101, ref. Calòet al. Br J Pharmacol 136, 303-311, 2002) [reference compound] | 6.81

These substances were tested on vas deferens of knockout mice for the NOP receptor (NOP−/−) (assay: Electrically stimulated vas deferens from NOP receptor knockout mice). Conditions: Table 2.
Format: cell-based, mouse

Substance | Emax NOP−/− | pEC50 NOP−/−
DPDPE [[D-Pen^2,D-Pen^5]-Enkephalin, reference compound] | 91 ± 5% | 8.20

— patent publication US8227414B2 ([…].R.L., priority 2005, dated 2012)
